Literature values, collected in patent US6497890B2, “Anti-wrinkle preparation and method of reducing wrinkles in facial skin and neck” (priority 1996, dated 2002).

Assays:
[1] = test system: rheumatoid arthritis patients; conditions: for EFFICACY (estimated rate) / TOXICITY (estimated rate): remittive agents in RA
[2] = commonly prescribed NSAIDS

Row | Structure (SMILES) | Half Life [2] [h] | EFFICACY (estimated rate) [1] | TOXICITY (estimated rate) [1] | onset of action ([1]; RA patients, mostly) [month]
1 | CC(=O)OC[C@H]1O[C@@H]([S-])[C@H](OC(C)=O)[C@@H](OC(C)=O)[C@@H]1OC(C)=O.CCP(CC)CC.[Au+] [Auranofin] | – | Intermediate | Intermediate | –
2 | Cn1cnc([N+](=O)[O-])c1Sc1ncnc2nc[nH]c12 [Azathioprine] | – | Intermediate | High | –
3 | O=P1(N(CCCl)CCCl)NCCCO1 (centres unmarked) [Cyclophosphamide] | – | High | High | –
4 | CCN(CCO)CCCC(C)Nc1ccnc2cc(Cl)ccc12 (centres unmarked) [Hydroxychloroquine] | – | Intermediate | Low | –
5 | CN(Cc1cnc2nc(N)nc(N)c2n1)c1ccc(C(=O)N[C@@H](CCC(=O)O)C(=O)O)cc1 [Methotrexate] | – | High | Intermediate | ≤ 1
6 | CC(C)(S)[C@@H](N)C(=O)O [Penicillamine] | – | Intermediate | High | –
7 | O=C(O)c1cc(/N=N/c2ccc(S(=O)(=O)Nc3ccccn3)cc2)ccc1O [Sulfasalazine] | – | Intermediate | Intermediate | –

Now from value to compound, other results behind:

Row | Half Life [2] [h] | Structure (SMILES) | EFFICACY (estimated rate) [1] | TOXICITY (estimated rate) [1] | onset of action ([1]; RA patients, mostly) [month]
8 | 1.5 | O=C(O)Cc1ccccc1Nc1c(Cl)cccc1Cl [Diclofenac] | – | – | –
9 | 2 | CC(C(=O)O)c1cccc(Oc2ccccc2)c1 (centres unmarked) [Fenoprofen] | – | – | –
10 | 3 to 11 | COc1ccc2c(c1)c(CC(=O)O)c(C)n2C(=O)c1ccc(Cl)cc1 [Indomethacin] | – | – | –
11 | 2 to 3 | Cc1ccc(Cl)c(Nc2ccccc2C(=O)O)c1Cl [Meclofenamate] | – | – | –
12 | 40 | O=C(O)CCc1nc(-c2ccccc2)c(-c2ccccc2)o1 [Oxaprozin] | – | – | –
13 | 30 to 86 | CN1C(C(=O)Nc2ccccn2)=C(O)c2ccccc2S1(=O)=O [Piroxicam] | – | – | –
14 | 16 | CC1=C(CC(=O)O)c2cc(F)ccc2/C1=C\c1ccc([S+](C)[O-])cc1 (centres unmarked) [Sulindac] | – | – | –
15 | 1 to 2 | Cc1ccc(C(=O)c2ccc(CC(=O)O)n2C)cc1 [Tolmetin] | – | – | –
